Assay: Single-dose pharmacokinetic study in healthy volunteers, plasma concentrations by LC-MS/MS
Assay type: in vivo, human
Conditions: single oral dose of 20 mg pantoprazole or 10 mg omeprazole, 20 healthy volunteers, fasted
Procedure: An open label, randomized, single‐dose pharmacokinetic study in healthy volunteers was conducted in cross‐over design.
The subjects presented to the study facilities fasted in the morning. Three hours after drug intake the subjects received a meal on both study days. […] Venous blood samples (7 mL each) were drawn into EDTA‐containing tubes. Blood samples were centrifuged immediately after blood sampling for 10 min at 2000g to generate blood plasma. Blood plasma was aliquoted and stored at −32 °C until analysis.
Probe drugs and metabolite concentrations were determined using a liquid‐chromatography tandem mass spectrometer (LC–MS/MS) system consisting of an Agilent 1290 Infinity II UHPLC coupled to a Sciex QTRAP6500 + triple quadrupole mass spectrometer.
The total chromatographic method length was increased from 8.5 to 8.8 min. […] Samples were vortexed for 10 s and centrifuged for 20 min at 17.000 x g and 4 °C. A total of 40 μl supernatant were diluted with 40 μl LC grade water, vortexed briefly and centrifuged again for 5 min at 17.000 x g and 4 °C.
The samples were vortexed for 10 s and centrifuged for 20 min at 4 °C and 17.000 x g. […]
The AUC0‐8h metabolic ratios (MR) were calculated as follows: AUC0‐8h MR = AUC0‐8h, metabolite/AUC0‐8h, substrate. […] Statistical significance was assessed using non‐parametric Kruskal‐Wallis test with Dunn's post hoc test. […]

COc1ccnc(C[S+]([O-])c2nc3ccc(OC(F)F)cc3[nH]2)c1OC (stereo not shown) [pantoprazole]
tmax: 2 h

Source: PMC13619035 (British Journal of Clinical Pharmacology, 2026)
